# Paper PMC5983452 (PLoS ONE, 2018)
# Like-named read-outs stand apart in the source and are kept apart here.
# How the values were obtained:
# [1] = test system: KYSE-150; assay: Cell proliferation, KYSE-150; format: cell-based; conditions: Homo sapiens, read-out: Cellular Proliferation IC50
# Experimental: (§1) Cell lines used in these experiments were obtained from the following sources and were cultured according to conditions specified by the respective cell banks. […] The cell lines listed above were tested for mycoplasma and were negative. Cells were authenticated by STR method or vendor protocols. All 313 cell lines in the CRIPSR pooled screen were purchased from commercial vendors and were STR authenticated and mycoplasma negative. A broad panel of cancer cell lines was screened in the Eurofins Oncopanel. All cells in this panel were mycoplasma negative and STR verified.
# Thus, 5 compounds representing 4 distinct pharmacophore series of SMYD2 inhibitors are now available for testing the dependence of cancer lines on SMYD2 activity. […] In stark contrast, however, no correlation is seen between the potency for BTF3 methylation inhibition and anti-proliferative activity among these compounds (Fig 3B).
# [2] = molecular target: T1, SMYD2 (Homo sapiens, UniProt Q9NRG4); assay: SMYD2 biochemical methylation assay (3H-SAM, H3,1–29 peptide, flashplate); parameters: Full length FLAG-SMYD2 and C-terminally Avi-tagged full length SMYD2 (SMYD2-Avi) were cloned into pFastbac vectors; FLAG (N); His tag with TEV cleavage site (N, cleaved yes); made in house; host or cells: Sf9 insect cells (baculovirus)
# T1 sequence (Q9NRG4 whole entry): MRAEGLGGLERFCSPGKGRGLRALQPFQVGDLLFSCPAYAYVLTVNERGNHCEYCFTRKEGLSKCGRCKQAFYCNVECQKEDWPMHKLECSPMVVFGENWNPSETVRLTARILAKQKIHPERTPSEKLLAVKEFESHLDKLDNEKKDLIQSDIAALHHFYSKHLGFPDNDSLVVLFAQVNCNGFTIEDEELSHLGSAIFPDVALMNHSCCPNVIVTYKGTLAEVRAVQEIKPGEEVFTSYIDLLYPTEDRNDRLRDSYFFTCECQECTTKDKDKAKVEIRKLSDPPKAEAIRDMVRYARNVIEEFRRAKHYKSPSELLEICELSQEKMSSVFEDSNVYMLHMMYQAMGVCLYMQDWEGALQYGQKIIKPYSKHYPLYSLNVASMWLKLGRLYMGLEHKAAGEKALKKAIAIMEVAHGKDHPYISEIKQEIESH
# Experimental: Full length FLAG-SMYD2 and C-terminally Avi-tagged full length SMYD2 (SMYD2-Avi) were cloned into pFastbac vectors containing an N-terminal His tag with TEV cleavage site. Virus production was performed using standard protocols and the proteins were coexpressed in either Sf9 (SMYD2) or Hi Five (SMYD2-Avi) cells. After harvest by centrifugation, cell pellets for both proteins were resuspended, sonicated, and then centrifuged to remove cell debris. Protein was purified using nickel affinity chromatography before and after TEV cleavage in a similar fashion as SMYD3. […] SMYD2-Avi was biotinylated using His-tagged BirA enzyme after dialysis into a low salt buffer and the BirA was removed with a final nickel affinity column. […] SMYD3 assays were performed as previously described using N-terminally GST-tagged MAP3K2 protein substrate. […] Reactions were conducted at room temperature with enzyme and inhibitor incubated for 30 minutes before initiating the reaction with substrates. Dose-response curves were tested in duplicate in each experiment. […] Quenched reactions were transferred to a streptavidin-coated flashplate (Perkin Elmer) for capture of the biotinylated peptide. After 2 h incubation at room temperature, the flashplate was washed once with 0.1% Tween-20 and read on a Perkin Elmer Topcount NXT plate reader. Substrate apparent KM values were determined by measuring the initial velocities (v0) in duplicate while varying one substrate at fixed concentration of the second substrate. […] Percent inhibition by compound (% inh) was calculated from Eq 3 %inh=(1-([…] the signal in the presence of compound and max and min are the signals for the DMSO and background controls respectively. […] Mechanism of inhibition was determined by measuring the inhibitor IC50 values while varying the concentration of one substrate at a fixed concentration of the second substrate equal to its KM value. The inhibition constant Ki was calculated from fitting the IC50 versus varied substrate concentration data using the Cheng-Prusoff equations for mixed-type and noncompetitive inhibition below. α is the coefficient accounting for differences in inhibitor affinity between binding enzyme forms after versus before substrate binding.
# [3] = molecular target: T1, SMYD2; assay: Intracellular BTF3 monomethylation (BTF3me1) western blot; format: cell-based; parameters: endogenous in cells; host or cells: 313 cancer cell lines; conditions: read-out: Intracellular Methylation IC50
# Experimental: Cells were lysed in 1X RIPA Buffer containing 10% SDS and Halt™ Protease Inhibitor Cocktail (Thermo Fisher Scientific) and incubated on ice for 30 minutes before sonication (Amplitude 20%/10sec) twice. Lysates were spun at […] at 4°C for 10min and normalized for protein concentration by BCA assay (Thermo Fisher Scientific). […] Blots were imaged using the Odyssey Imaging System (LICOR Biosciences). […] BTF3me1 is a custom generated polyclonal antibody, affinity purified from serum of rabbits injected with adjuvant conjugated peptide corresponding to methylated K1 of BTF3 (K(Me)-[…]).
# SMYD2 catalyzes the methylation of lysine residues on several proteins, including BTF3 [40].
# [4] = test system: cell lines found to be sensitive to LLY-507; conditions: cited from earlier work
# [5] = molecular target: T2, SMYD3 (Homo sapiens, UniProt Q9H7B4); conditions: read-out: Kd for binding to SMYD3; cited from earlier work
# T2 sequence (Q9H7B4 1-428): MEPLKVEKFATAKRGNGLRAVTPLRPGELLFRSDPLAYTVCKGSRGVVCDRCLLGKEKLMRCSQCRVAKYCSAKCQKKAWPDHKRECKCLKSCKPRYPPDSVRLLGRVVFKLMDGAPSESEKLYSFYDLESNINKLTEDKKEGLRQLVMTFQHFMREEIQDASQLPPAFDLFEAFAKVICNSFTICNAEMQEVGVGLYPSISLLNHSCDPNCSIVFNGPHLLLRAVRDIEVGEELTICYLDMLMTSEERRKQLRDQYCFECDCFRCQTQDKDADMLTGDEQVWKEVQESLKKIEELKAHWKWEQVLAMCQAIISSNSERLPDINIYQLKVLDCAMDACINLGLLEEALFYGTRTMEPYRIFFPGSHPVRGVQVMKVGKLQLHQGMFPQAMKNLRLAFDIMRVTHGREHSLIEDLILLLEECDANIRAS
# [6] = test system: several cell lines; conditions: cited from earlier work
# [7] = molecular target: T2, SMYD3; parameters: endogenous in cells; host or cells: 313 cancer cell lines; method as in Mitchell et al (2016); conditions: read-out: Intracellular Methylation IC50; MAP3K2 methylation; ref Mitchell et al (2016); cited from earlier work
# [8] = molecular target: T2, SMYD3; parameters: Protein purification of both isoforms of full length SMYD3 was performed as previously reported; made in house; method as in Mitchell et al (2016); conditions: read-out: Biochemical IC50, ref Mitchell et al (2016); cited from earlier work
# [9] = molecular target: T2, SMYD3; assay: SMYD3 biochemical methylation assay (3H-SAM, GST-MAP3K2/MEKK2 substrate); parameters: Protein purification of both isoforms of full length SMYD3 was performed as previously reported; made in house; conditions: tested in duplicate; read-out: selectivity panel result, SMYD3 (off-target)
# Experimental: SMYD3 assays were performed as previously described using N-terminally GST-tagged MAP3K2 protein substrate. […] Reactions were conducted at room temperature with enzyme and inhibitor incubated for 30 minutes before initiating the reaction with substrates. Dose-response curves were tested in duplicate in each experiment. […] Quenched reactions were transferred to a streptavidin-coated flashplate (Perkin Elmer) for capture of the biotinylated peptide. After 2 h incubation at room temperature, the flashplate was washed once with 0.1% Tween-20 and read on a Perkin Elmer Topcount NXT plate reader. Substrate apparent KM values were determined by measuring the initial velocities (v0) in duplicate while varying one substrate at fixed concentration of the second substrate.
# Mechanism of inhibition was determined by measuring the inhibitor IC50 values while varying the concentration of one substrate at a fixed concentration of the second substrate equal to its KM value.
# [10] = test system: panel of 240 cancer cell lines; assay: Proliferation in a broad panel of 240 cancer cell lines, 2D culture (Eurofins Panlabs Oncopanel); format: cell-based; conditions: for IC50: read-out: anti-proliferative IC50 across the panel of 240 cancer cell lines, 2D culture
# Experimental: as §1
# [11] = test system: several enzymes; parameters: method as in http://www.chemicalprobes.org; conditions: ref http://www.chemicalprobes.org; cited from earlier work
# [12] = molecular target: T1, SMYD2; conditions: read-out: apparent SAM KM (reported); p53 peptide substrate, pH 9.0; 2 (supplemental references); cited from earlier work
# [13] = SMYD2, 20 nM SAM, 60 nM H3,1–29 peptide, read-out: Biochemical IC50
smiles,measurement,setting,value
"O=C1COc2c(CCNCCN(C(=O)CCNCCc3ccc(Cl)c(Cl)c3)C3CCCCC3)ccc(O)c2N1 [AZ505, reference compound]",IC50,[1],12800 nM
same,IC50,[2]; [13],51 nM
same,IC50,[3],13900 nM
CCN(C(=O)CO)[C@H]1CN(/C(=N\C#N)Nc2cccc(OC(F)F)c2)N=C1c1ccc(Cl)c(Cl)c1 [BAY-598],impact on cell proliferation or induction of apoptosis,[4]; cell lines found to be sensitive to LLY-507,little impact
same,IC50,"[4]; ref Eggert et al (2016), read-out: Cellular Proliferation IC50",> 20000 nM
NC(=O)C1CCN(CC(=O)Nc2ccc(Br)cc2)CC1 [BCI-121],Kd,[5],11800 nM
same,inhibition of proliferation of several cell lines,[6]; at 100 µM,20–30%
same,IC50,"[6]; ref Peserico et al (2015), read-out: Cellular Proliferation IC50",> 100000 nM
O=C1Cc2cc(C(=O)NC3CC4CCC(C3)N4S(=O)(=O)CC3CCN(CCCC(F)(F)F)CC3)c(Cl)cc2N1 (stereo not shown) [EPZ031686],IC50,[7],36 nM
same,IC50,[8],3 nM
O=C(NC1CN(Cc2cnn(Cc3ccccc3)c2)C1)c1cn(C2CC2)nn1 [EPZ032597],IC50,[9],> 10000 nM
same,IC50,[1],> 40000 nM
same,mechanism of inhibition with respect to peptide substrate,"[2]; 1 nM enzyme, 20 nM SAM, varied H3,1–29",noncompetitive
same,IC50,"[2]; IC50 at 20 nM SAM, 1 nM SMYD2, 60 nM H3,1-29, 20 nM SAM",21 ± 2 nM
same,IC50,"[2]; IC50 at 200 nM SAM, 1 nM SMYD2, 60 nM H3,1-29, 200 nM SAM",25 ± 5 nM
same,IC50,[2]; [13],16 nM
same,Ki,"[2]; varied H3,1–29 peptide, Eq 6, read-out: Ki (noncompetitive versus peptide)",21.5 ± 1.5 nM
same,IC50,[3],31 nM
same,growth inhibition on repeat testing of hematologic cancer cell lines,[10]; cell lines with lower IC50 in the initial screen,< 50%
same,IC50,[10],> 10000 nM
"Cc1cn(CCN2CCN(c3ccccc3-c3cc(C#N)cc(C(=O)NCCCN4CCCC4)c3)CC2)c2ccccc12 [LLY-507, reference compound]",IC50,[1],1800 nM
same,inhibition of several enzymes (off-target potency),[11],< 1000 nM
same,IC50,[10],1000 to 5000 nM
"C[S+](CC[C@H](N)C(=O)[O-])C[C@H]1O[C@@H](n2cnc3c(N)ncnc32)[C@H](O)[C@@H]1O (stereo partly drawn) [SAM, S-(5’adenosyl)-L-methionine]",Km,"[2]; 1 nM SMYD2, 60 nM H3,1–29, Eq 2, upper limit for the true KM, read-out: apparent KM for SAM",0.00034 ± 7e-05 µM
same,Km,[12],0.03 to 0.06 µM
